What all share (format): cell-based, rat
The test system of experiment [1] is S2− InsP3R-1. As to the kind of experiment: Ca2+ oscillations after α-IgM antibody stimulation of Dt-40 3ko cells expressing S2− constructs. The settings on record: for Ca^2+ signal pattern: 250 ng/ml α-IgM antibody (threshold). The source says:
Cells transfected with WT and mutant S2− isoforms were stimulated with varying concentrations of an α-IgM antibody (Southern Biotechnology Associates, Inc., Birmingham, Ala.). Infrequent Ca^2+ oscillations were produced presumably through B cell receptor cross-linking, activation of phospholipase C-γ, and subsequent production of InsP3.
In many nonelectrically excitable cell types, the physiological mode of Ca^2+ signaling is through the generation of Ca^2+ oscillations (1, 108). Moreover, it is a generally held view that the spatial and temporal properties of Ca^2+ oscillations make an important contribution to defining the fidelity and specificity of Ca^2+ signaling. In many current models addressing the mechanism underlying Ca^2+ oscillations, a key feature is the regulation of Ca^2+ release through InsP3R. Experiments were then designed to assess the consequences of InsP3R-1 phosphorylation (expressed in isolation) on the initiation and generation of Ca^2+ oscillations. An α-IgM antibody was chosen to stimulate and to initiate Ca^2+ oscillations through activation of the endogenous B cell receptor, phospholipase C-γ activation, and the formation of InsP3. Dt-40 3ko cells expressing either S2−WT or S2−EE to mimic PKA phosphorylation of the InsP3R-1 were stimulated with various concentrations of α-IgM antibody as illustrated by the selection of representative traces in FIG. 24. […] This latter observation presumably reflects the fact that the frequency of oscillations is primarily defined by mechanisms such as Ca^2+ feedback (109) rather than the absolute sensitivity of the InsP3R-1 to InsP3 within a defined range. […] Given the almost ubiquitous expression of various forms of InsP3R-1, this is likely a generally important phenomenon. […] These include modulation of InSP3 binding, an idea supported by measurements of InsP3R binding in hepatocytes (112) (presumably S2− InsP3R-1 and InsP3R-2). In these studies the apparent affinity of InsP3 binding was enhanced ˜2-fold at resting [Ca^2+], and the [Ca^2+] necessary for half-maximal stimulation of InsP3 binding was reduced. In contrast, a study of recombinant S1−S2+InsP3R-1 expressed in SF9 cells and reconstituted into lipid bilayers has reported a similar increase in InsP3R sensitivity to InsP3 but that the bell-shaped Ca^2+ sensitivity of channel opening is not altered following phosphorylation of the InsP3R-1 (23). These findings indicate that modulation of the Ca^2+ sensitivity of channel activity is unlikely to account for the increased apparent sensitivity of the receptor, at least in this form of the InsP3R-1. There are a number of alternative mechanisms for altering InsP3R-1 sensitivity are conceivable. For example, phosphorylation of the receptor could alter the gating of the channel directly. In addition, phosphorylation might secondarily modulate the receptor by regulation of the association of regulatory factors such as proteins or adenine nucleotides (113-115).

Experiment [2] concerns S2− InsP3R-1. The experiment is described as follows: Potentiation of CCh-induced Ca2+ release after PKG activation (8-Br cGMP), S2− InsP3R-1 constructs in DT-40 3ko cells. The procedure:
Transfected DT-40 3ko cells were washed once in a HEPES-buffered physiological saline solution (HEPES-PSS) containing (in mM) 5.5 glucose, 137 NaCl, 0.56 MgCl2, 4.7 KCl, 1 Na2HPO4, 10 HEPES (pH 7.4), 1.2 CaCl2 and 1% w/v Bovine Serum Albumin. Cells were then resuspended in BSA HEPES-PSS with 1 μM Fura-2 (AM), placed on a 15 mm glass coverslip in a low volume perfusion chamber (Warner Instruments) and allowed to adhere for 30 minutes at room temperature. Cells were perfused continually for 10 minutes with HEPES-PSS before experimentation to allow Fura-2 de-esterification. A field of cells for each experiment was chosen that contained a wide range of transfection efficiency based upon the intensity of red fluorescence emitted when excited at 560 nm. [Ca^2+]i imaging was performed essentially as previously described using an inverted epifluorescence Nikon microscope with a 40× oil immersion objective lens (numerical aperture, 1.3). […] Fluorescence images were captured and digitized with a digital camera driven by TILL Photonics software. […] 340/380 ratio images were calculated online and stored immediately to hard disk.
The effects of treatment were determined by normalizing the peak change in fluorescence ratio by stimulation following forskolin or 8-Br cGMP exposure to that of stimulation in control HEPES-PSS. […]

Experiment [3] deals with S2− InsP3R-1. The experiment is described as follows: Potentiation of CCh-induced Ca2+ release after PKA activation (forskolin), S2− InsP3R-1 constructs in DT-40 3ko cells. The settings on record: low affinity indicator Fura-2-FF.

“Also recorded” adds a separate entry of the source.

In the case of “S2−EE: phosphomimetic S1589E/S1755E mutant of the short splice variant”, the “Ca^2+ signal pattern” value in the experiment with S2− InsP3R-1 [1] is given as “repetitive Ca^2+ transients following a much shorter latency; also recorded: multiple Ca^2+ transients”. In addition, in the experiment with S2− InsP3R-1 [1] (500 ng/ml α-IgM antibody), the “latency before the increase in Ca^2+ versus S2−WT” value is reported as “significantly shorter” and the “magnitude of the initial transient versus WT” value is given as “significantly larger”. The “latency, frequency or initial peak magnitude versus S2−WT” value with S2− InsP3R-1 [1] (1 μg/ml α-IgM antibody) is recorded as “indistinguishable”.
Consider “S2−WT: wild-type rat type-1 InsP3 receptor, peripheral short S2− splice variant (SEQ ID NO: 17)”, for which the “effect of 8-Br cGMP treatment on CCh-induced Ca^2+ release” value in the experiment on S2− InsP3R-1 [2] (10 μM 8-Br cGMP) was “no effect”. The “Ca^2+ release after PKG activation” value with S2− InsP3R-1 [2] (S2 − InsP3R-1 constructs, Table 2) is recorded as “no change”. Besides, in the experiment on S2− InsP3R-1 [1], the “Ca^2+ signal pattern” value was “single small increase in [Ca^2+]i after a long latency; also recorded: single Ca^2+ transient after a long latency”. Besides, in the experiment with S2− InsP3R-1 [3], the “fold potentiation of CCh-induced Ca^2+ release by forskolin” value is listed as around 4.5 fold.

Values taken from US20080039410A1, “Inositol 1,4,5-Trisphosphate Receptor Mutants and Uses Thereof” (priority 2004, published 2008).
